The record followed here is paper PMC9995496, “A screen for MeCP2-TBL1 interaction inhibitors using a luminescence-based assay” (Scientific Reports, 2023).

The structures appear in SMILES notation. Where a name gives a salt, the structure may show the parent alone. Read-outs that look alike come from different tables or passages of the source.

The test concerns PRKACA-PRKAR2A interaction (SmBiT-PRKACA / LgBiT-PRKAR2A), protein kinase A. Also on record: NanoLuc complementation counter-screen in cell extract, PRKACA with PRKAR2A, loss of luminescence, detects NanoLuc interference. As to conditions: counter-screen for NanoLuc interference, 0.5 h, 20 µM, inhibitor.

As for `COc1cc(Nc2ncc(F)c(Nc3ccc4c(n3)N(COP(=O)(O)O)C(=O)C(C)(C)O4)n2)cc(OC)c1OC` [UM0141996:01, R788 disodium], the “Inh (PKA)” value (Inh (PKA)) is given as 11.53%.

For `O=C1Cc2c([nH]c3ccc(Br)cc23)-c2ccccc2N1` [UM0119194:04, Kenpaullone], the “Inh (PKA)” value was found to be 40.47%.

Consider `COc1cc(Nc2c(C#N)cnc3cc(OCCCN4CCN(C)CC4)c(OC)cc23)c(Cl)cc1Cl` [UM0141444:01, Bosutinib (SKI-606)], for which the “Inh (PKA)” value is on record as 20.21%.

For `CC(C)(C)c1nc(-c2cccc(NS(=O)(=O)c3c(F)cccc3F)c2F)c(-c2ccnc(N)n2)s1` [UM0142241:01, Dabrafenib (GSK2118436)], the “Inh (PKA)” value (Inh (PKA)) turned out to be 30.14%.

Consider `CCN[C@@H]1C[C@H](N)[C@@H](O[C@H]2OC(CN)=CC[C@H]2N)[C@H](O)[C@H]1O[C@H]1OC[C@](C)(O)[C@H](NC)[C@H]1O` [UM0142372:01, Netilmicin Sulfate], for which the “Inh (PKA)” value is given as -0.6216%.

For `Nc1nc(NC2CC2)c2ncn([C@H]3C=C[C@@H](CO)C3)c2n1` [UM0141511:01, Abacavir], the “Inh (PKA)” value is recorded as 2.063%.

For the compound `C[C@H](NCc1ccc(OCc2cccc(F)c2)cc1)C(N)=O` [UM0141812:01, Safinamide Mesylate], the “Inh (PKA)” value was determined as 2.51%.

As to `CC[C@@H]([C@H](C)O)n1ncn(-c2ccc(N3CCN(c4ccc(OC[C@@H]5CO[C@@](Cn6cncn6)(c6ccc(F)cc6F)C5)cc4)CC3)cc2)c1=O` [UM0141411:01, Posaconazole], the “Inh (PKA)” value is listed as 3.84%.

With `CCOc1cc(C(=O)N2CCC(N3CCN(C)CC3)CC2)ccc1Nc1ncc2c(n1)N(C1CCCC1)c1ccccc1C(=O)N2C` [UM0141651:01, XMD17-109], the “Inh (PKA)” value is given as 18.58%.

For the compound `C=CC[C@]1(O)CC[C@H]2[C@@H]3CCC4=CC(=O)CCC4=C3C=C[C@@]21C` [UM0142281:01, Altrenogest], the “Inh (PKA)” value is 7.202%.

As for `CS(=O)(=O)CCNCc1ccc(-c2ccc3ncnc(Nc4ccc(OCc5cccc(F)c5)c(Cl)c4)c3c2)o1` [UM0130979:02, Lapatinib Ditosylate], the “Inh (PKA)” value (Inh (PKA)) came out at 54.72%.

With `CNC(=O)CN1CCC(Oc2cc3c(Nc4cccc(Cl)c4F)ncnc3cc2OC)CC1` [UM0142022:01, AZD8931 (Sapitinib)], the “Inh (PKA)” value is listed as 6.017%.

For `Nc1cccc2c1C(=O)N(C1CCC(=O)NC1=O)C2=O` (stereo not shown) [UM0141764:01, Pomalidomide (CC-4047)], the “Inh (PKA)” value turned out to be 2.798%.

Take `COc1cc2ncc(-c3ccccc3)nc2cc1OC` [UM0127935:03, Tyrphostin AG 1296]: the “Inh (PKA)” value worked out at 8.299%.

Consider `Cc1ccc2c(=O)c3cccc(CC(=O)O)c3oc2c1C` [UM0141964:01, DMXAA (Vadimezan)], for which the “Inh (PKA)” value was determined as 2.691%.

Consider `COc1cccc2c1c(O)c(C(=O)N(C)c1ccc(C(F)(F)F)cc1)c(=O)n2C` [UM0141635:01, Tasquinimod], for which the “Inh (PKA)” value turned out to be 2.103%.

As to `CN1CCN(c2ccc(OC(F)(F)F)c(Nc3ncc4c(n3)-c3c(c(C(N)=O)nn3CCO)CC4)c2)CC1` [UM0142553:01, NMS-1286937], the “Inh (PKA)” value is on record as 23.22%.

On to `Cc1ccc(NC(=O)C2(c3ccc4c(c3)OC(F)(F)O4)CC2)nc1-c1cccc(C(=O)O)c1` [UM0142010:01, VX-809], for which the “Inh (PKA)” value stood at 21.09%.

Consider `CC(C)C[C@H](NC(=O)CNC(=O)c1cc(Cl)ccc1Cl)B1OC(=O)C(CC(=O)O)(CC(=O)O)O1` [UM0141662:01, MLN9708], for which the “Inh (PKA)” value is -0.4944%.

As for `CC(C)(C)C(O)/C(=C\c1ccc(Cl)cc1)n1cncn1` (stereo not shown) [UM0142839:01, Uniconazole], the “Inh (PKA)” value was found to be 40.56%.

For the compound `CCO[C@@H]1OC(=O)C[C@@H]1NC(=O)[C@@H]1CCCN1C(=O)[C@@H](NC(=O)c1ccc(N)c(Cl)c1)C(C)(C)C` [UM0141966:01, VX-765], the “Inh (PKA)” value is reported as 0.4442%.

For `CN1CCN(c2cccc(Nc3nc4c(-c5ccc(S(C)(=O)=O)cc5)cccn4n3)c2)CC1` [UM0141732:01, CEP-33779], the “Inh (PKA)” value amounted to 32.81%.
